Here are results for 13 compounds from doi:10.1101/2024.12.23.630085, “Accurate sequence-to-affinity models for SH2 domains from multi-round peptide binding assays coupled with free-energy regression” (bioRxiv, 2025).

What all share (format): binding
The target in one assay is T1, c-Src SH2 domain (Homo sapiens, UniProt P12931).
T1 construct: the SH2 domains of two closely-related kinases from the Src subfamily (c-Src and Fyn); made in house
The assay is described as follows: Competitive fluorescence polarization, c-Src SH2. Particulars: competition fluorescence polarization, probe FITC-Ahx-GDG-pY-EEISPLLL-NH2 30 nM, mean. An excerpt:
(§1) All peptides containing phosphorylated tyrosine, both fluorescently labelled and non-labelled, were produced by SynPeptide (China).
On the technique in general: Fluorescence polarisation rises when a labelled molecule tumbles more slowly, as on binding a larger partner.

In the next assay the target is T2, Grb2 SH2 domain (Homo sapiens, UniProt P62993).
T2 construct: one distantly-related SH2 domain from the adapter protein Grb2; His6-SUMO (N); mCh (only in the data set names 'Grb2mCh'; possibly an mCherry fusion, never explained); made in house
The assay is described as follows: Competitive fluorescence polarization, Grb2 SH2. Particulars: Table S3 unpaired validation; competition fluorescence polarization; probe FITC-Ahx-FDDPS(pY)VNVQN 30 nM; [SH2] 123 nM; mean.
Source text: as §1

Another assay concerns the target T3, Fyn SH2 domain (Homo sapiens, UniProt P06241).
T3 construct: The human SH2 domains from Fyn (142–248), Lyn (121–228); His6-SUMO (N, cleaved yes); made in house; host or cells: E. coli C43(DE3) with BirA helper plasmid
The assay is described as follows: Competitive fluorescence polarization, Fyn SH2. Particulars: Table S3 unpaired validation; competition fluorescence polarization; probe FITC-Ahx-GDG-pY-EEISPLLL-NH2 0.4 nM; [SH2] 4.12 nM; mean. As to the method: Next, the protein was eluted with elution buffer (50 mM Tris, pH 7.5, 50 mM NaCl, 250 mM imidazole, 10% glycerol) directly onto a 5 mL HiTrap Q HP anion exchange column (Cytiva). […] The biotinylated SH2 domain was then collected in a flowthrough after running the cleavage reaction over a HisTrap HP column.

[1] abbreviates: Table S5 single-amino-acid substitution pairs, [SH2] 240 nM.

Non-standard residues stand in square brackets, D forms with d. Residues, ends and D or L forms follow the SMILES beside them. pY = N[C@@H](Cc1ccc(OP(=O)(O)O)cc1)C(=O)O

T2 sequence (P62993 60-152 limits assumed): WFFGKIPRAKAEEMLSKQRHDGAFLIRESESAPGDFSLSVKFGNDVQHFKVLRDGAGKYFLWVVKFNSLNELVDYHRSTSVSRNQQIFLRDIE
T3 sequence (P06241 142-248): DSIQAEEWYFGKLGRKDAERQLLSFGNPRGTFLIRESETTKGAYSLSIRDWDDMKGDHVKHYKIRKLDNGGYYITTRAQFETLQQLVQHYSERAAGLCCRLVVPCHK

As usually defined, the Kd is a measure of binding affinity in units of concentration. A high value points to a looser complex. Turning to `CC[C@H](C)[C@H](NC(=O)[C@@H]1CCCN1C(=O)[C@H](CCC(N)=O)NC(C)=O)C(=O)N[C@@H](Cc1ccccc1)C(=O)N[C@@H](CCC(=O)O)C(=O)NCC(=O)N[C@@H](Cc1ccc(OP(=O)(O)O)cc1)C(=O)N[C@@H](C)C(=O)N[C@@H](CC(C)C)C(=O)N1CCC[C@H]1C(=O)N[C@@H](Cc1c[nH]cn1)C(=O)N[C@@H](C)C(=O)NCC(N)=O` [ACTA1 pY171] (Ac-QPIFEG[pY]ALPHAG-NH2), at c-Src SH2 domain (setting [1]), the Kd stood at 4.67 µM.

On c-Src SH2 domain (setting [1]), `CC(=O)N[C@@H](CCC(N)=O)C(=O)N[C@@H](CO)C(=O)N[C@@H](CC(C)C)C(=O)N[C@@H](CCC(=O)O)C(=O)N[C@@H](CCCCN)C(=O)N[C@@H](CO)C(=O)N[C@@H](Cc1ccc(OP(=O)(O)O)cc1)C(=O)N[C@@H](CCC(=O)O)C(=O)N[C@@H](CC(C)C)C(=O)N[C@@H](CC(C)C)C(=O)N[C@@H](CC(=O)O)C(=O)NCC(=O)NCC(N)=O` [ACTB pY240 P243L] (Ac-QSLEKS[pY]ELLDGG-NH2) had a Kd of 6.09 µM.

As to `CC(=O)N[C@@H](CCC(N)=O)C(=O)N[C@@H](CO)C(=O)N[C@@H](CC(C)C)C(=O)N[C@@H](CCC(=O)O)C(=O)N[C@@H](CCCCN)C(=O)N[C@@H](CO)C(=O)N[C@@H](Cc1ccc(OP(=O)(O)O)cc1)C(=O)N[C@@H](CCC(=O)O)C(=O)N[C@@H](CC(C)C)C(=O)N1CCC[C@H]1C(=O)N[C@@H](CC(=O)O)C(=O)NCC(=O)NCC(N)=O` [ACTB pY240] (Ac-QSLEKS[pY]ELPDGG-NH2), binding on c-Src SH2 domain (setting [1]) was put at a Kd of 9.04 µM.

`CC[C@H](C)[C@H](NC(=O)CNC(=O)[C@H](CCC(=O)O)NC(=O)[C@@H](NC(=O)[C@H](CCC(N)=O)NC(C)=O)C(C)C)C(=O)N[C@@H](CO)C(=O)N[C@@H](Cc1ccc(OP(=O)(O)O)cc1)C(=O)N[C@@H](CC(=O)O)C(=O)N[C@@H](Cc1ccccc1)C(=O)N[C@H](C(=O)N1CCC[C@H]1C(=O)N[C@H](C(=O)NCC(N)=O)[C@@H](C)O)[C@@H](C)CC` [CBS pY308 G307S] (Ac-QVEGIS[pY]DFIPTG-NH2) showed a Kd on c-Src SH2 domain (setting [1]) of 4.28 µM.

On to `CC[C@H](C)[C@H](NC(=O)CNC(=O)[C@H](CCC(=O)O)NC(=O)[C@@H](NC(=O)[C@H](CCC(N)=O)NC(C)=O)C(C)C)C(=O)NCC(=O)N[C@@H](Cc1ccc(OP(=O)(O)O)cc1)C(=O)N[C@@H](CC(=O)O)C(=O)N[C@@H](Cc1ccccc1)C(=O)N[C@H](C(=O)N1CCC[C@H]1C(=O)N[C@H](C(=O)NCC(N)=O)[C@@H](C)O)[C@@H](C)CC` [CBS pY308] (Ac-QVEGIG[pY]DFIPTG-NH2), for which binding at c-Src SH2 domain (setting [1]) was put at a Kd of 2.73 µM.

In turn, `CC[C@H](C)[C@H](NC(=O)[C@H](CC(C)C)NC(=O)[C@H](CO)NC(=O)[C@H](Cc1ccc(OP(=O)(O)O)cc1)NC(=O)[C@H](CCCNC(=N)N)NC(=O)[C@H](CCCNC(=N)N)NC(=O)[C@H](CCC(N)=O)NC(=O)[C@H](CC(=O)O)NC(=O)[C@H](CO)NC(=O)[C@H](CCC(N)=O)NC(C)=O)C(=O)N[C@@H](CC(=O)O)C(=O)N[C@@H](CCCNC(=N)N)C(=O)NCC(N)=O` [CLIP2 pY972] (Ac-QSDQRR[pY]SLIDRG-NH2) had a Kd on c-Src SH2 domain (setting [1]) of 3.98 µM.

Regarding “Ac-QHNIHS-pY-INIPPG-NH2 [Syn-G2-2 (synthetic)]”, the affinity at Grb2 SH2 domain, expressed as Kd, was 0.00399 µM.

“Ac-QHRLNN-pY-ENNRLG-NH2 [Syn-G2-6 (synthetic)]” returned a Kd on Grb2 SH2 domain of 2.25 µM.

As for “Ac-QIEVGT-pY-QNPHNG-NH2 [Syn-G2-7 (synthetic)]”, on Grb2 SH2 domain, the dissociation constant (Kd) is 3.24 µM.

For “Ac-QKEAHH-pY-VNWRTG-NH2 [Syn-G2-1 (synthetic)]”, the Kd was found to be 9.66 µM at c-Src SH2 domain (Table S3 unpaired validation, [SH2] 123-126 nM) and 0.0318 µM at Grb2 SH2 domain.

Consider “Ac-QLGHQR-pY-HNITPG-NH2 [Syn-G2-5 (synthetic)]”, for which, on Grb2 SH2 domain, the Kd came to 0.487 µM.

As to “Ac-QLHVHP-pY-EKVEDG-NH2 [Syn-F-1 (synthetic)]”, the affinity at Fyn SH2 domain, expressed as Kd, was 0.0302 µM.

“Ac-QMEKHV-pY-ESVTQG-NH2 [Syn-F-2 (synthetic)]” gave a Kd on Fyn SH2 domain of 0.0183 µM.
